Reference: patent publication US11013249B2, “Compositions for controlled release of volatile compounds” (University of Guelph, priority 2016, dated 2021)
≈ marks a conversion by molar mass, not a printed value.

Key:
[1] = system: Yeast; assay: Inhibitory effects of AITC, diacetyl and cinnamaldehyde vapour; assay type: cell-based, yeast isolated from mung bean sprouts
Procedure: (§1) P. fluorescens was selected as a model spoilage bacteria, while mould and yeast were isolated from spoiled mung bean sprouts with bacteria excluded by cultivating in potato dextrose broth (PDB) (Sigma, Oakville, ON, Canada) at pH 5.6±0.2. Yeast and P. fluorescens stocks were cultivated in PDB and trypticase soy broth (TSB) (Bacto, BD, Sparks, USA), respectively, at 30° C. for 24 h and diluted with sterile saline solution (NaCl, 8.5 g/L water) to a concentration of 10^6 CFU/mL. An aliquot of 50 μL of the prepared yeast or bacteria suspension was spread on potato dextrose agar (PDA) (Difco, BD, Sparks, USA) or trypticase soy agar (TSA) (Bacto, BD, Sparks, USA), respectively, in 5 cm diameter petri dishes (Fisher Scientific, Ottawa, ON, Canada). Mycelium of mould was inoculated as one spot at the center of the PDA dishes. Two freshly inoculated petri dishes of same microorganism, with their lids removed, were placed in a one-liter glass jar. […] The growth of the microorganisms was monitored by the colony formation for 3 days.

[2] = system: P. aphanidermatum; assay: Antimicrobial efficacy of pure CA and PLA-PEO-CA nonwoven; assay type: cell-based, Pythium aphanidermatum; settings: 25° C.
Procedure: (§2) The antimicrobial activity of PLA-PEO-CA nonwoven was tested on two spoilage microorganisms, P. fluorescens and P. aphanidermatum. One of each freshly inoculated P. fluorescens and P. aphanidermatum petri dishes, with the lid removed, were placed in a one-liter glass jar. A piece of PLA-PEO-CA nonwoven or a certain amount of liquid CA was placed in the middle of the jar without touching the petri dishes and the lid was closed immediately. The jar was incubated at 25° C. The growth of the microorganisms was monitored every 24 h for 4 d.

[3] = system: P. Fluorescens; assay: as above; assay type: cell-based, Pseudomonas fluorescens; settings: 25° C.
Procedure: as §2

[4] = system: P. Fluorescens; assay: Inhibitory effects of AITC, diacetyl and cinnamaldehyde vapour; assay type: cell-based, Pseudomonas fluorescens P33; settings: 25° C.
Procedure: as §1

[5] = system: Mould; assay: as above; assay type: cell-based, mould isolated from mung bean sprouts; settings: 25° C.
Procedure: as §1

[6] = 25° C.; cited from earlier work
[7] = Amount 2 mg in one-liter jar, 25° C.
[8] = Amount 5 mg in one-liter jar, 25° C.
[9] = Amount 10 mg in one-liter jar, 25° C.
[10] = Amount 20 mg in one-liter jar, 25° C.

O=CC=Cc1ccccc1 [Cinnamaldehyde]
Yeast day1, visual colony number [1, 7]: + (less than 15)
Yeast day2, visual colony number [1, 7]: + (less than 15)
Yeast day3, visual colony number [1, 7]: ++ (15-50)
Yeast day1, visual colony number [1, 8]: + (less than 15)
Yeast day2, visual colony number [1, 8]: + (less than 15)
Yeast day3, visual colony number [1, 8]: + (less than 15)
Yeast day1, visual colony number [1, 9]: + (less than 15)
Yeast day2, visual colony number [1, 9]: + (less than 15)
Yeast day3, visual colony number [1, 9]: + (less than 15)
Yeast day1, visual colony number [1, 10]: + (less than 15)
Yeast day2, visual colony number [1, 10]: + (less than 15)
Yeast day3, visual colony number [1, 10]: + (less than 15)
MIC ([1]; established on yeast, mould and P. fluorescens from Table 8, read-out: minimum inhibition concentration (MIC)): 30 µg/mL (≈ 227 µM)
effective concentration against yeast ([1]; vapour in one-liter jar, 25° C.): 30 mg/L
P. aphanidermatum Day 1, colony diameter ([2]; 2 mg liquid CA in 1 L jar): 1.3 mm
P. aphanidermatum Day 2, colony diameter ([2]; 2 mg liquid CA in 1 L jar): 2.8 mm
P. aphanidermatum Day 3, colony diameter ([2]; 2 mg liquid CA in 1 L jar): 4 mm
P. aphanidermatum Day 4, colony diameter ([2]; 2 mg liquid CA in 1 L jar): 5 mm
P. aphanidermatum Day 1, colony diameter ([2]; 5 mg liquid CA in 1 L jar): 1 mm
P. aphanidermatum Day 2, colony diameter ([2]; 5 mg liquid CA in 1 L jar): 2.1 mm
P. aphanidermatum Day 3, colony diameter ([2]; 5 mg liquid CA in 1 L jar): 2.8 mm
P. aphanidermatum Day 4, colony diameter ([2]; 5 mg liquid CA in 1 L jar): 3.5 mm
P. aphanidermatum Day 1, colony diameter ([2]; 10 mg liquid CA in 1 L jar): 0.8 mm
P. aphanidermatum Day 2, colony diameter ([2]; 10 mg liquid CA in 1 L jar): 1.6 mm
P. aphanidermatum Day 3, colony diameter ([2]; 10 mg liquid CA in 1 L jar): 2.2 mm
P. aphanidermatum Day 4, colony diameter ([2]; 10 mg liquid CA in 1 L jar): 2.7 mm
P. aphanidermatum Day 1, colony diameter ([2]; 30 mg liquid CA in 1 L jar): 0.7 mm
P. aphanidermatum Day 2, colony diameter ([2]; 30 mg liquid CA in 1 L jar): 1.4 mm
P. aphanidermatum Day 3, colony diameter ([2]; 30 mg liquid CA in 1 L jar): 1.8 mm
P. aphanidermatum Day 4, colony diameter ([2]; 30 mg liquid CA in 1 L jar): 2 mm
P. Fluorescens Day 1, visual colony number ([3]; 2 mg liquid CA in 1 L jar): ++ (15-50)
P. Fluorescens Day 2, visual colony number ([3]; 2 mg liquid CA in 1 L jar): ++++ (more than 150)
P. Fluorescens Day 3, visual colony number ([3]; 2 mg liquid CA in 1 L jar): ++++ (more than 150)
P. Fluorescens Day 4, visual colony number ([3]; 2 mg liquid CA in 1 L jar): ++++ (more than 150)
P. Fluorescens Day 1, visual colony number ([3]; 5 mg liquid CA in 1 L jar): ++ (15-50)
P. Fluorescens Day 2, visual colony number ([3]; 5 mg liquid CA in 1 L jar): ++++ (more than 150)
P. Fluorescens Day 3, visual colony number ([3]; 5 mg liquid CA in 1 L jar): ++++ (more than 150)
P. Fluorescens Day 4, visual colony number ([3]; 5 mg liquid CA in 1 L jar): ++++ (more than 150)
P. Fluorescens Day 1, visual colony number ([3]; 10 mg liquid CA in 1 L jar): + (less than 15)
P. Fluorescens Day 2, visual colony number ([3]; 10 mg liquid CA in 1 L jar): +++ (50-150)
P. Fluorescens Day 3, visual colony number ([3]; 10 mg liquid CA in 1 L jar): +++ (50-150)
P. Fluorescens Day 4, visual colony number ([3]; 10 mg liquid CA in 1 L jar): +++ (50-150)
P. Fluorescens Day 2, visual colony number ([3]; 30 mg liquid CA in 1 L jar): + (less than 15)
P. Fluorescens Day 3, visual colony number ([3]; 30 mg liquid CA in 1 L jar): + (less than 15)
P. Fluorescens Day 4, visual colony number ([3]; 30 mg liquid CA in 1 L jar): + (less than 15)
P. Fluorescens day1, visual colony number ([4]; Amount 2 mg in one-liter jar): +++ (50-150)
P. Fluorescens day2, visual colony number ([4]; Amount 2 mg in one-liter jar): +++ (50-150)
P. Fluorescens day1, visual colony number ([4]; Amount 5 mg in one-liter jar): ++ (15-50)
P. Fluorescens day2, visual colony number ([4]; Amount 5 mg in one-liter jar): ++ (15-50)
P. Fluorescens day1, visual colony number ([4]; Amount 10 mg in one-liter jar): + (less than 15)
P. Fluorescens day2, visual colony number ([4]; Amount 10 mg in one-liter jar): + (less than 15)
P. Fluorescens day1, visual colony number ([4]; Amount 20 mg in one-liter jar): + (less than 15)
P. Fluorescens day2, visual colony number ([4]; Amount 20 mg in one-liter jar): + (less than 15)
effective concentration against P. fluorescens ([4]; vapour in one-liter jar): 30 mg/L
Mould day1, visual colony number ([5]; Amount 2 mg in one-liter jar): ++ (15-50)
Mould day2, visual colony number ([5]; Amount 2 mg in one-liter jar): ++ (15-50)
Mould day3, visual colony number ([5]; Amount 2 mg in one-liter jar): ++ (15-50)
Mould day1, visual colony number ([5]; Amount 5 mg in one-liter jar): + (less than 15)
Mould day2, visual colony number ([5]; Amount 5 mg in one-liter jar): + (less than 15)
Mould day3, visual colony number ([5]; Amount 5 mg in one-liter jar): + (less than 15)
Mould day1, visual colony number ([5]; Amount 10 mg in one-liter jar): + (less than 15)
Mould day2, visual colony number ([5]; Amount 10 mg in one-liter jar): + (less than 15)
Mould day3, visual colony number ([5]; Amount 10 mg in one-liter jar): + (less than 15)
Mould day1, visual colony number ([5]; Amount 20 mg in one-liter jar): + (less than 15)
Mould day2, visual colony number ([5]; Amount 20 mg in one-liter jar): + (less than 15)
Mould day3, visual colony number ([5]; Amount 20 mg in one-liter jar): + (less than 15)
concentration that inhibited the growth of mould for three days ([5]; vapour in one-liter jar): 30 mg/L

O=C(O)C=Cc1ccccc1 [cinnamic acid]
vapor pressure [6]: 0.0047 mm Hg

Cc1ccc(C(C)C)c(O)c1 [thymol, Thymol]
vapor pressure [6]: 0.0054 kPa
